Results reported in patent US20240228443A1, “NOVEL MANUFACTURING METHOD OF D[…] PRECURSORS THEREOF” (GlaxoSmithKline Intellectual Property (No.2) Limited, priority 2021, published 2024).
Converted amounts (≈) assume the structure as drawn.

Assay: Solubility by saturation of the solvent, filtration and determination of concentration in the supernatant
Assay type: physicochemical
Conditions: thermodynamic from solid
Protocol: The solubility of 5-acetyl-1,3-dicyclohexylpyrimidine-2,4,6(1H,3H,5H)-trione was measured in 29.5% v/v acetic anhydride-acetic acid (a mimic for the solvent composition at the end of Stage 1), acetic acid and water. The solubility was measured by saturation of the solvent with the component, filtration and determination of the component concentration in the supernatant.

CC(=O)C1C(=O)N(C2CCCCC2)C(=O)N(C2CCCCC2)C1=O [5-acetyl-1,3-dicyclohexylpyrimidine-2,4,6(1H,3H,5H)-trione]
solubility (organic solvent or mixture, in 29.5% v/v acetic anhydride-acetic acid at 15° C.): 43.7 mg/mL (≈ 131 mM) | solubility (organic solvent or mixture, in acetic acid at 20° C.): 62.3 mg/mL (≈ 186 mM) | solubility (in water at 25° C.): < 0.1 mg/mL
